Laboratory results as given in ChEMBL document CHEMBL1201862, “PubChem BioAssay data set” (2004).
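Where inhibition never reached the appropriate level, the endpoint shown equals the highest concentration tested. Otherwise, values were interpolated linearly from a five-concentration, 48-hour dose response in 96-well plates. GI50 is the concentration that inhibits growth by half.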 Calls of active or inactive are those of the source. No stated cut-off is given here; in the data, active = GI50 up to about 1.1 µM and inactive = higher.

How the values were obtained:
Assay in all cases: NCI-60 cell line screen, 48 h
MCF7 = system: MCF7
HL-60 = system: HL-60
Malme-3M = system: Malme-3M
NCI-H23 = system: NCI-H23
HCC 2998 = system: HCC 2998
K562 = system: K562
EKVX = system: EKVX
HT-29 = system: HT-29
DU-145 = system: DU-145
SN12C = system: SN12C
786-0 = system: 786-0
UO-31 = system: UO-31
NCI/ADR-RES = system: NCI/ADR-RES
NCI-H460 = system: NCI-H460
SK-MEL-5 = system: SK-MEL-5
LOX IMVI = system: LOX IMVI
SW-620 = system: SW-620
A549 = system: A549
NCI-H226 = system: NCI-H226

Compound	GI50 (MCF7)	GI50 (HL-60)	GI50 (Malme-3M)	GI50 (NCI-H23)	GI50 (HCC 2998)	GI50 (K562)	GI50 (EKVX)	GI50 (HT-29)	GI50 (DU-145)	GI50 (SN12C)	GI50 (786-0)	GI50 (UO-31)	GI50 (NCI/ADR-RES)	GI50 (NCI-H460)	GI50 (SK-MEL-5)	GI50 (LOX IMVI)	GI50 (SW-620)	GI50 (A549)	GI50 (NCI-H226)
OC(Cc1cccnc1)(c1ccccc1)c1ccccc1	> 100 µM (inactive)	55.5 µM (inactive)	> 100 µM (inactive)	70.8 µM (inactive)	> 100 µM (inactive)	72.1 µM (inactive)	17.8 µM (inactive)	> 100 µM (inactive)	> 100 µM (inactive)	> 100 µM (inactive)	> 100 µM (inactive)	> 100 µM (inactive)	57.9 µM (inactive)	> 100 µM (inactive)	32.9 µM (inactive)	> 100 µM (inactive)	> 100 µM (inactive)	> 100 µM (inactive)	> 100 µM (inactive)
O=C1C(=C(I)I)c2ccccc2-c2ccccc21	3.59 µM (inactive)	0.998 µM (active)	1.64 µM (inactive)	5.07 µM (inactive)	2.51 µM (inactive)	1.85 µM (inactive)	3 µM (inactive)	3.21 µM (inactive)	3.67 µM (inactive)	2.05 µM (inactive)	2.07 µM (inactive)	2.1 µM (inactive)	3.24 µM (inactive)	14.6 µM (inactive)	5.37 µM (inactive)	2.08 µM (inactive)	1.63 µM (inactive)	16.3 µM (inactive)	19.7 µM (inactive)
COC(=O)C(C)(/N=C/c1ccccc1)c1ccccc1 (stereo not given)	> 100 µM (inactive)	> 100 µM (inactive)	> 100 µM (inactive)	> 100 µM (inactive)	> 100 µM (inactive)	> 100 µM (inactive)	> 100 µM (inactive)	> 100 µM (inactive)	> 100 µM (inactive)	> 100 µM (inactive)	> 100 µM (inactive)	> 100 µM (inactive)	> 100 µM (inactive)	> 100 µM (inactive)	> 100 µM (inactive)	> 100 µM (inactive)	> 100 µM (inactive)	> 100 µM (inactive)	> 100 µM (inactive)
CC(=O)OC(CC(C)C)P1(=O)N(CC(C)(C)C)[C@@H]2CCCC[C@H]2N1CC(C)(C)C (stereo not given in full)	6.35 µM (inactive)	5.71 µM (inactive)	9.33 µM (inactive)	10.2 µM (inactive)	6.38 µM (inactive)	8.47 µM (inactive)	11.2 µM (inactive)	7.1 µM (inactive)	15.3 µM (inactive)	10.7 µM (inactive)	10.8 µM (inactive)	8.65 µM (inactive)	8.3 µM (inactive)	8.57 µM (inactive)	9.4 µM (inactive)	11.9 µM (inactive)	11.3 µM (inactive)	5.42 µM (inactive)	10.4 µM (inactive)
CC(=O)C(=[N+]=[N-])C(=O)N1CCOC1=O	> 10 µM (inactive)	> 10 µM (inactive)	> 10 µM (inactive)	> 10 µM (inactive)	> 10 µM (inactive)	> 10 µM (inactive)	> 10 µM (inactive)	> 10 µM (inactive)	> 10 µM (inactive)	> 10 µM (inactive)	> 10 µM (inactive)	> 10 µM (inactive)	> 10 µM (inactive)	> 10 µM (inactive)	> 10 µM (inactive)	> 10 µM (inactive)	> 10 µM (inactive)	> 10 µM (inactive)	> 10 µM (inactive)
